Measurements published in PubChem BioAssay (NCI).
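1) Cells in 96-well plates. 2) Compound, 48 h, 5 concentrations. 3) Linear interpolation between surrounding doses. 4) Unreached endpoint = highest concentration. TGI: concentration producing complete growth inhibition.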

How the values were obtained:
Assay in all cases: NCI-60 cell line screen, 48 h
NCI/ADR-RES ovarian = system: NCI/ADR-RES ovarian
OVCAR-5 ovarian = system: OVCAR-5 ovarian
MCF7 breast = system: MCF7 breast
CAKI-1 renal = system: CAKI-1 renal
HCC-2998 colon = system: HCC-2998 colon
M14 melanoma = system: M14 melanoma
HS 578T breast = system: HS 578T breast
KM12 colon = system: KM12 colon
SF-295 CNS = system: SF-295 CNS
SW-620 colon = system: SW-620 colon
HOP-92 NSCLC = system: HOP-92 NSCLC
COLO 205 colon = system: COLO 205 colon
HL-60(TB) leukemia = system: HL-60(TB) leukemia
LOX IMVI melanoma = system: LOX IMVI melanoma
T-47D breast = system: T-47D breast
SK-MEL-5 melanoma = system: SK-MEL-5 melanoma
NCI-H226 lung = system: NCI-H226 lung
CCRF-CEM leukemia = system: CCRF-CEM leukemia
UACC-62 melanoma = system: UACC-62 melanoma
A498 renal = system: A498 renal
A549 NSCLC = system: A549 NSCLC
HCT-116 colon = system: HCT-116 colon
SNB-19 CNS = system: SNB-19 CNS
NCI-H460 lung = system: NCI-H460 lung
OVCAR-3 ovarian = system: OVCAR-3 ovarian
TK-10 renal = system: TK-10 renal
DU-145 prostate = system: DU-145 prostate
RPMI-8226 leukemia = system: RPMI-8226 leukemia
HT29 colon = system: HT29 colon
OVCAR-4 ovarian = system: OVCAR-4 ovarian
EKVX NSCLC = system: EKVX NSCLC
U251 CNS = system: U251 CNS
UACC-257 melanoma = system: UACC-257 melanoma
SR leukemia = system: SR leukemia
NCI-H23 lung = system: NCI-H23 lung
MOLT-4 leukemia = system: MOLT-4 leukemia
RXF 393 renal = system: RXF 393 renal
MDA-MB-435 = system: MDA-MB-435
786-0 renal = system: 786-0 renal
K-562 leukemia = system: K-562 leukemia
BT-549 breast = system: BT-549 breast
SF-268 CNS = system: SF-268 CNS
OVCAR-8 ovarian = system: OVCAR-8 ovarian
IGROV1 ovarian = system: IGROV1 ovarian
MDA-N = system: MDA-N
ACHN renal = system: ACHN renal
NCI-H522 lung = system: NCI-H522 lung
SK-OV-3 ovarian = system: SK-OV-3 ovarian
MDA-MB-231 breast = system: MDA-MB-231 breast
SK-MEL-2 melanoma = system: SK-MEL-2 melanoma
HCT-15 colon = system: HCT-15 colon
SF-539 CNS = system: SF-539 CNS
HOP-62 NSCLC = system: HOP-62 NSCLC
SNB-75 CNS = system: SNB-75 CNS
PC-3 prostate = system: PC-3 prostate
SN12C renal = system: SN12C renal
SK-MEL-28 melanoma = system: SK-MEL-28 melanoma
UO-31 renal = system: UO-31 renal
MALME-3M melanoma = system: MALME-3M melanoma

C=C(C)C(=O)O[C@H]1C[C@@]23O[C@@H]2CCC(=C[C@H]2OC(=O)C(=C)[C@H]12)COC3O (stereo not given in full)
TGI (NCI/ADR-RES ovarian): > 100 µM
TGI (OVCAR-5 ovarian): > 100 µM
TGI (MCF7 breast): > 100 µM
TGI (CAKI-1 renal): > 100 µM
TGI (HCC-2998 colon): > 100 µM
TGI (M14 melanoma): > 100 µM
TGI (HS 578T breast): > 100 µM
TGI (KM12 colon): > 100 µM
TGI (SF-295 CNS): > 100 µM
TGI (SW-620 colon): 36.4 µM
TGI (HOP-92 NSCLC): 53.6 µM
TGI (COLO 205 colon): 56.8 µM
TGI (HL-60(TB) leukemia): 48.3 µM
TGI (LOX IMVI melanoma): 30.5 µM
TGI (T-47D breast): > 100 µM
TGI (SK-MEL-5 melanoma): > 100 µM
TGI (NCI-H226 lung): > 100 µM
TGI (CCRF-CEM leukemia): 50.1 µM
TGI (UACC-62 melanoma): > 100 µM
TGI (A498 renal): > 100 µM
TGI (A549 NSCLC): > 100 µM
TGI (HCT-116 colon): 37.5 µM
TGI (SNB-19 CNS): > 100 µM
TGI (NCI-H460 lung): > 100 µM
TGI (OVCAR-3 ovarian): > 100 µM
TGI (TK-10 renal): > 100 µM
TGI (DU-145 prostate): > 100 µM
TGI (RPMI-8226 leukemia): 63 µM
TGI (HT29 colon): > 100 µM
TGI (OVCAR-4 ovarian): > 100 µM
TGI (EKVX NSCLC): > 100 µM
TGI (U251 CNS): > 100 µM
TGI (UACC-257 melanoma): > 100 µM
TGI (SR leukemia): 95.1 µM
TGI (NCI-H23 lung): > 100 µM
TGI (MOLT-4 leukemia): 92.2 µM
TGI (RXF 393 renal): 89.6 µM
TGI (MDA-MB-435): > 100 µM
TGI (786-0 renal): > 100 µM
TGI (K-562 leukemia): 44 µM
TGI (BT-549 breast): > 100 µM
TGI (SF-268 CNS): > 100 µM
TGI (OVCAR-8 ovarian): > 100 µM
TGI (IGROV1 ovarian): > 100 µM
TGI (MDA-N): > 100 µM
TGI (ACHN renal): > 100 µM
TGI (NCI-H522 lung): 30.7 µM
TGI (SK-OV-3 ovarian): > 100 µM
TGI (MDA-MB-231 breast): > 100 µM
TGI (SK-MEL-2 melanoma): > 100 µM
TGI (HCT-15 colon): 43.5 µM
TGI (SF-539 CNS): > 100 µM
TGI (HOP-62 NSCLC): > 100 µM
TGI (SNB-75 CNS): > 100 µM
TGI (PC-3 prostate): > 100 µM
TGI (SN12C renal): > 100 µM

CCSc1sc(=Nc2ccc(N=c3sc(C)c(SC)s3)cc2)sc1-c1ccc(C)cc1
TGI (NCI/ADR-RES ovarian): > 100 µM
TGI (SK-MEL-28 melanoma): > 100 µM
TGI (OVCAR-5 ovarian): > 100 µM
TGI (MCF7 breast): > 100 µM
TGI (CAKI-1 renal): > 100 µM
TGI (HCC-2998 colon): > 100 µM
TGI (M14 melanoma): > 100 µM
TGI (HS 578T breast): > 100 µM
TGI (KM12 colon): > 100 µM
TGI (SF-295 CNS): > 100 µM
TGI (SW-620 colon): > 100 µM
TGI (HOP-92 NSCLC): > 100 µM
TGI (COLO 205 colon): > 100 µM
TGI (HL-60(TB) leukemia): > 100 µM
TGI (LOX IMVI melanoma): > 100 µM
TGI (T-47D breast): > 100 µM
TGI (SK-MEL-5 melanoma): > 100 µM
TGI (CCRF-CEM leukemia): > 100 µM
TGI (UACC-62 melanoma): > 100 µM
TGI (A498 renal): > 100 µM
TGI (A549 NSCLC): > 100 µM
TGI (HCT-116 colon): > 100 µM
TGI (SNB-19 CNS): > 100 µM
TGI (NCI-H460 lung): > 100 µM
TGI (OVCAR-3 ovarian): > 100 µM
TGI (TK-10 renal): > 100 µM
TGI (DU-145 prostate): > 100 µM
TGI (RPMI-8226 leukemia): > 100 µM
TGI (HT29 colon): > 100 µM
TGI (OVCAR-4 ovarian): > 100 µM
TGI (EKVX NSCLC): > 100 µM
TGI (U251 CNS): > 100 µM
TGI (UACC-257 melanoma): > 100 µM
TGI (SR leukemia): > 100 µM
TGI (UO-31 renal): > 100 µM
TGI (NCI-H23 lung): > 100 µM
TGI (MOLT-4 leukemia): > 100 µM
TGI (RXF 393 renal): > 100 µM
TGI (MDA-MB-435): > 100 µM
TGI (786-0 renal): > 100 µM
TGI (K-562 leukemia): > 100 µM
TGI (BT-549 breast): > 100 µM
TGI (SF-268 CNS): > 100 µM
TGI (OVCAR-8 ovarian): > 100 µM
TGI (IGROV1 ovarian): > 100 µM
TGI (MALME-3M melanoma): > 100 µM
TGI (MDA-N): > 100 µM
TGI (ACHN renal): > 100 µM
TGI (NCI-H522 lung): > 100 µM
TGI (SK-OV-3 ovarian): > 100 µM
TGI (MDA-MB-231 breast): > 100 µM
TGI (SK-MEL-2 melanoma): > 100 µM
TGI (HCT-15 colon): > 100 µM
TGI (SF-539 CNS): > 100 µM
TGI (HOP-62 NSCLC): > 100 µM
TGI (SNB-75 CNS): > 100 µM
TGI (PC-3 prostate): > 100 µM
TGI (SN12C renal): > 100 µM

Oc1[nH]c2ccccc2c1N=Nc1ccccn1
TGI (NCI/ADR-RES ovarian): 28 µM
TGI (SK-MEL-28 melanoma): > 100 µM
TGI (OVCAR-5 ovarian): > 100 µM
TGI (MCF7 breast): > 100 µM
TGI (CAKI-1 renal): > 100 µM
TGI (HCC-2998 colon): 82.8 µM
TGI (M14 melanoma): > 100 µM
TGI (HS 578T breast): > 100 µM
TGI (KM12 colon): 97.8 µM
TGI (SF-295 CNS): > 100 µM
TGI (SW-620 colon): > 100 µM
TGI (COLO 205 colon): > 100 µM
TGI (HL-60(TB) leukemia): 86.5 µM
TGI (LOX IMVI melanoma): > 100 µM
TGI (T-47D breast): > 100 µM
TGI (SK-MEL-5 melanoma): > 100 µM
TGI (NCI-H226 lung): 61.7 µM
TGI (CCRF-CEM leukemia): 58.8 µM
TGI (UACC-62 melanoma): > 100 µM
TGI (A498 renal): 70.6 µM
TGI (A549 NSCLC): > 100 µM
TGI (HCT-116 colon): 25.2 µM
TGI (SNB-19 CNS): > 100 µM
TGI (NCI-H460 lung): 35.6 µM
TGI (OVCAR-3 ovarian): > 100 µM
TGI (TK-10 renal): 53.7 µM
TGI (DU-145 prostate): > 100 µM
TGI (RPMI-8226 leukemia): > 100 µM
TGI (HT29 colon): 55.5 µM
TGI (OVCAR-4 ovarian): 45.6 µM
TGI (EKVX NSCLC): > 100 µM
TGI (U251 CNS): 46.6 µM
TGI (UACC-257 melanoma): > 100 µM
TGI (SR leukemia): 47.6 µM
TGI (UO-31 renal): 33.7 µM
TGI (NCI-H23 lung): > 100 µM
TGI (MOLT-4 leukemia): > 100 µM
TGI (RXF 393 renal): > 100 µM
TGI (MDA-MB-435): > 100 µM
TGI (786-0 renal): 29.6 µM
TGI (K-562 leukemia): > 100 µM
TGI (BT-549 breast): > 100 µM
TGI (SF-268 CNS): > 100 µM
TGI (OVCAR-8 ovarian): 26.3 µM
TGI (IGROV1 ovarian): 90.7 µM
TGI (MDA-N): > 100 µM
TGI (ACHN renal): 23 µM
TGI (NCI-H522 lung): 78.8 µM
TGI (SK-OV-3 ovarian): 38.1 µM
TGI (MDA-MB-231 breast): 38.1 µM
TGI (SK-MEL-2 melanoma): > 100 µM
TGI (HCT-15 colon): > 100 µM
TGI (HOP-62 NSCLC): 91.7 µM
TGI (SNB-75 CNS): 86.6 µM
TGI (PC-3 prostate): > 100 µM
TGI (SN12C renal): > 100 µM
